Assay results reported in patent publication US20090118332A1, “Therapeutic Agents - 551” (AstraZeneca AB, priority 2006, published 2009).

Molecular target: T1, human Fatty Acid Synthase (Homo sapiens, UniProt P49327)
T1 construct: made in house
Assay: Human FAS enzyme assay (decrease in NADPH fluorescence)
Type: biochemical
Conditions: % inhibition at a concentration of 100 μmolar
Summary of the method: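 In-house human FAS was preincubated with compound and NADPH for 15 min at room temperature in 0.1 M Tris pH 7.5 with EDTA, glutathione and BSA. Malonyl CoA and acetyl CoA (500 μM and 150 μM in the added mix) were then added for 60 min. IC50 came from time-zero-subtracted NADPH fluorescence (340/460 nm).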

T1 sequence (P49327 whole entry): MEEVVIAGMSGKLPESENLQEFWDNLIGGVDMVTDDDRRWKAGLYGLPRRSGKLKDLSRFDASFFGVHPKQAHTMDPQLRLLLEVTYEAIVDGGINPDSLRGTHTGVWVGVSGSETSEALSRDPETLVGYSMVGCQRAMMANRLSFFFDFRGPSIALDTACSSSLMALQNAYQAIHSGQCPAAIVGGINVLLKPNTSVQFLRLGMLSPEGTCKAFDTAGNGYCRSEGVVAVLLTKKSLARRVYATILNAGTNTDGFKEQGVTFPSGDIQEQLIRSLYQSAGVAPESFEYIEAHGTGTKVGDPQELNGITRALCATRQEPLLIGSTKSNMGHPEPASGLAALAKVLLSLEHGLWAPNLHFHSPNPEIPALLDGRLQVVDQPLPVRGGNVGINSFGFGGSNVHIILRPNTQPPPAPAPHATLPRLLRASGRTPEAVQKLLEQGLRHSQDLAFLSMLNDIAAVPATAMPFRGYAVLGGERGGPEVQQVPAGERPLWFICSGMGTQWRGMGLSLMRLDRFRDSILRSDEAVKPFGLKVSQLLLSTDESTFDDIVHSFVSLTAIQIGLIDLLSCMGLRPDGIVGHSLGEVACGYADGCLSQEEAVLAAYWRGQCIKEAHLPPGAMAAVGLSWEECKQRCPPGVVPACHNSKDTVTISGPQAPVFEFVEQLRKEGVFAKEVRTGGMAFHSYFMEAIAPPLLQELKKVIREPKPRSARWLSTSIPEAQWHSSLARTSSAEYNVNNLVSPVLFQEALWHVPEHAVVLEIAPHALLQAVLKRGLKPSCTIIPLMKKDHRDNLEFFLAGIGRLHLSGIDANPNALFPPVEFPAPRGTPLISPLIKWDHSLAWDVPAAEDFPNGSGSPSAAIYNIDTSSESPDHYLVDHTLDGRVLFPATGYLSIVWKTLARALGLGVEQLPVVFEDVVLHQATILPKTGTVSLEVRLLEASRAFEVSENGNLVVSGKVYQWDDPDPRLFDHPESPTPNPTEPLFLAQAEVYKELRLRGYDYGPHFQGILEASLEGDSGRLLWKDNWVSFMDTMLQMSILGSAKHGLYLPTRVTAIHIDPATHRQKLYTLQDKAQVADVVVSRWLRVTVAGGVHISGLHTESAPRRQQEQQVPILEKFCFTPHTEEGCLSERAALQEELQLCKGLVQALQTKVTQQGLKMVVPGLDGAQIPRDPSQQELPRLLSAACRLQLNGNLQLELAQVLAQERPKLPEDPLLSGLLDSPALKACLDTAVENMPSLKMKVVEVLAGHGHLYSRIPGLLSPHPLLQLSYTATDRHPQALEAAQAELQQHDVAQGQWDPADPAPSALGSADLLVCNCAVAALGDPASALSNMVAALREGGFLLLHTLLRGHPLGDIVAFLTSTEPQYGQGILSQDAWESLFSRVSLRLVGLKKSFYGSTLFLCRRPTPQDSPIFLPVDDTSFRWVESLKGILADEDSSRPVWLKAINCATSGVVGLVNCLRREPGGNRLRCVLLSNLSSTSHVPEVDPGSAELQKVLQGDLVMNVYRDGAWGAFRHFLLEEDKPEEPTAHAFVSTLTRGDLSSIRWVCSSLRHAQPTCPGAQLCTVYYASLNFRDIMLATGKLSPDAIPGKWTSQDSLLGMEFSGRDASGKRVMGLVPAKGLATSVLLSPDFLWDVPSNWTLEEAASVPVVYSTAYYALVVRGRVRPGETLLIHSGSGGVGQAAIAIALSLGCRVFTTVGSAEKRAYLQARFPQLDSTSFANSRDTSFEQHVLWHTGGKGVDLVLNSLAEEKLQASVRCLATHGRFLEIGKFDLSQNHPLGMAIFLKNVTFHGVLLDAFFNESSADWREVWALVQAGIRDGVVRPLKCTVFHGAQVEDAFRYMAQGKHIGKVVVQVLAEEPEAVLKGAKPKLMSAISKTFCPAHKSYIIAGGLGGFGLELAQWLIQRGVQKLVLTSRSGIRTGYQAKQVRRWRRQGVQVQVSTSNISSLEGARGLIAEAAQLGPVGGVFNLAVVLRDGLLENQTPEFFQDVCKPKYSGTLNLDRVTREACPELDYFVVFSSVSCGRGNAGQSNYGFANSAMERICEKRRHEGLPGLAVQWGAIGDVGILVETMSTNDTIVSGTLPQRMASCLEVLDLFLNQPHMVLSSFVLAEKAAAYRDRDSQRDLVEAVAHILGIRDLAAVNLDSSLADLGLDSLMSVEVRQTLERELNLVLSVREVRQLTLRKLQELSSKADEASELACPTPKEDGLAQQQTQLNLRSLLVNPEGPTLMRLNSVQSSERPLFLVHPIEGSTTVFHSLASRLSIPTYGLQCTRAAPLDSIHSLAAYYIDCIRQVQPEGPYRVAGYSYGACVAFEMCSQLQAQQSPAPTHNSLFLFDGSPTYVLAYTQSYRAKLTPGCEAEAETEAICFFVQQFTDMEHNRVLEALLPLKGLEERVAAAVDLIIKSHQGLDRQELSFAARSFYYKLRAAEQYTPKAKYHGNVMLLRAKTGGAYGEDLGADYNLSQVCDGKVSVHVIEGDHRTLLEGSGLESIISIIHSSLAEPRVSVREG

Point of comparison: Cc1ccc(C(=O)N2CCC(c3ccc(C#N)cc3)CC2)cc1NC(=O)N[C@H](C)c1ccccc1 [Example 106, 1-[5-[4-(4-cyanophenyl)piperidine-1-carbonyl]-2-methyl-phenyl]-3-[(1R)-1-phenylethyl]urea], inhibition at 100 µM 90.3%. Against it:
- COC[C@@H](CO)NC(=O)Nc1cc(C(=O)N2CCC(c3ccc(C#N)cc3)CC2)ccc1C [Example 198, 1-[5-[4-(4-cyanophenyl)piperidine-1-carbonyl]-2-methyl-phenyl]-3-[(2R)-1-hydroxy-3-methoxy-propan-2-yl]urea] — lower, 87.9%
- Cc1ccc(C(=O)N2CCC(c3ccc(C#N)cc3)CC2)cc1NC(=O)NC(C)C(C)C (stereo not shown) [Example 229, 1-[5-[4-(4-cyanophenyl)piperidine-1-carbonyl]-2-methyl-phenyl]-3-(3-methylbutan-2-yl)urea] — lower, 88.7%
- Cc1ccc(C(=O)N2CCC(c3ccc(C#N)cc3)CC2)cc1NC(=O)NCCC(N)=O [Example 126, 3-[[5-[4-(4-cyanophenyl)piperidine-1-carbonyl]-2-methyl-phenyl]carbamoylamino]propanamide] — lower, 87.4%
- Cc1ccc(C(=O)N2CCC(c3ccc(C#N)cc3)CC2)cc1NC(=O)NC1CN(S(C)(=O)=O)C1 [Example 302, 1-[5-[4-(4-cyanophenyl)piperidine-1-carbonyl]-2-methyl-phenyl]-3-(1-methylsulfonylazetidin-3-yl)urea] — higher, 93.9%
- Cc1ccc(C(=O)N2CCC(c3ccc(C#N)cc3)CC2)cc1NC(=O)NCC1COCCO1 (stereo not shown) [Example 160, 1-[5-[4-(4-cyanophenyl)piperidine-1-carbonyl]-2-methyl-phenyl]-3-(1,4-dioxan-2-ylmethyl)urea] — higher, 94.9%
- Cc1ccc(C(=O)N2CCC(c3ccc(C#N)cc3)CC2)cc1NC(=O)NCCc1ccccc1 [Example 16, 1-[5-[4-(4-cyanophenyl)piperidine-1-carbonyl]-2-methyl-phenyl]-3-phenethyl-urea] — higher, 98.3%
- Cc1ccc(C(=O)N2CCC(c3ccc(C#N)cc3)CC2)cc1NC(=O)NC(C)Cc1c[nH]c2ccccc12 (racemic) [Example 70, (RS)-1-[5-[4-(4-cyanophenyl)piperidine-1-carbonyl]-2-methyl-phenyl]-3-[1-(1H-indol-3-yl)propan-2-yl]urea] — lower, 87.7%
- Cc1ccc(NC(=O)N[C@H]2CC[C@@H](O)CC2)cc1C(=O)N1CCC(c2ccc(C#N)cc2)CC1 [Example 48, 1-[3-[4-(4-cyanophenyl)piperidine-1-carbonyl]-4-methyl-phenyl]-3-cis-(4-hydroxycyclohexyl)urea] — higher, 93.7%
- Cc1ccc(C(=O)N2CCC(c3ccc(C#N)cc3)CC2)cc1NC(=O)NC1Cc2cccnc2NC1=O (racemic) [Example 239, (RS)-1-[5-[4-(4-cyanophenyl)piperidine-1-carbonyl]-2-methyl-phenyl]-3-(2-oxo-3,4-dihydro-1H-1,8-naphthyridin-3-yl)urea] — lower, 86.5%
- Cc1ccc(C(=O)N2CCC(c3ccc(C#N)cc3)CC2)cc1NC(=O)NC(C)(C)CO [Example 190, 1-[5-[4-(4-cyanophenyl)piperidine-1-carbonyl]-2-methyl-phenyl]-3-(1-hydroxy-2-methyl-propan-2-yl)urea] — lower, 82.9%
- Cc1ccc(C(=O)N2CCC(c3ccc(C#N)cc3)CC2)cc1NC(=O)NC1CNC1 [Example 300, 3-(azetidin-3-yl)-1-[5-[4-(4-cyanophenyl)piperidine-1-carbonyl]-2-methyl-phenyl]urea] — lower, 84.3%
- Cc1cc(C)c(C(=O)N2CCC(c3ccc(C#N)cc3)CC2)cc1NC(=O)NC1CC1 [Example 411, 1-[5-[4-(4-cyanophenyl)piperidine-1-carbonyl]-2,4-dimethylphenyl]-3-cyclopropylurea] — lower, 90%
- N#Cc1ccc(C2CCN(C(=O)c3ccc(C(F)(F)F)c(NC(=O)NCc4ccccc4)c3)CC2)cc1 [Example 280, 1-benzyl-3-[5-[4-(4-cyanophenyl)piperidine-1-carbonyl]-2-(trifluoromethyl)phenyl]urea] — higher, 90.6%
- N#Cc1ccc(C2CCN(C(=O)c3ccc(OC(F)(F)F)c(NC(=O)NCc4ccccc4)c3)CC2)cc1 [Example 5, 3-benzyl-1-[5-[4-(4-cyanophenyl)piperidine-1-carbonyl]-2-(trifluoromethoxy)phenyl]urea] — lower, 78.8%
- Cc1ccc(C(=O)N2CCC(c3ccc(C#N)cc3)CC2)cc1NC(=O)NCc1nnn[nH]1 [Example 82, 1-[5-[4-(4-cyanophenyl)piperidine-1-carbonyl]-2-methyl-phenyl]-3-(1H-tetrazol-5-ylmethyl)urea] — lower, 82%
- CC(=O)N1CC[C@@H](NC(=O)Nc2cc(C(=O)N3CCC(c4ccc(C#N)cc4)CC3)ccc2C)C1 [Example 275, 3-[(3R)-1-acetylpyrrolidin-3-yl]-1-[5-[4-(4-cyanophenyl)piperidine-1-carbonyl]-2-methyl-phenyl]urea] — higher, 106%
- CC(=O)N1CCC(NC(=O)Nc2cc(C(=O)N3CCC(c4ccc(F)cc4)CC3)ccc2C)C1 (stereo not shown) [Example 348, 3-(1-acetylpyrrolidin-3-yl)-1-[5-[4-(4-fluorophenyl)piperidine-1-carbonyl]-2-methyl-phenyl]urea] — lower, 84.5%
- Cc1ccc(C(=O)N2CCC(c3ccc(C#N)cc3)CC2)cc1NC(=O)NCCCCO [Example 185, 1-[5-[4-(4-cyanophenyl)piperidine-1-carbonyl]-2-methyl-phenyl]-3-(4-hydroxybutyl)urea] — higher, 92.6%
- Cc1ccc(C(=O)N2CCC(c3ccc(C#N)cc3)CC2)cc1NC(=O)N[C@H]1CC[C@H](NC(=O)OC(C)(C)C)C1 [Example 316, tert-butyl N-[(1S,3S)-3-[[5-[4-(4-cyanophenyl)piperidine-1-carbonyl]-2-methyl-phenyl]carbamoylamino]cyclopentyl]carbamate] — higher, 99.6%
- Cc1ccc(C(=O)N2CCC(c3ccc(C#N)cc3)CC2)cc1NC(=O)NC(C)c1cccnc1 (stereo not shown) [Example 354, 1-[5-[4-(4-cyanophenyl)piperidine-1-carbonyl]-2-methyl-phenyl]-3-(1-pyridin-3-ylethyl)urea] — higher, 91.3%
- Cc1ccc(C(=O)N2CCC(c3ccc(C#N)cc3)CC2)cc1NC(=O)N[C@@H](CCS(C)(=O)=O)C(=O)OC(C)(C)C [Example 180, tert-butyl (2S)-2-[[5-[4-(4-cyanophenyl)piperidine-1-carbonyl]-2-methyl-phenyl]carbamoylamino]-4-methylsulfonyl-butanoate] — higher, 92%
- CC(=O)OCC(=O)NCCNC(=O)Nc1cc(C(=O)N2CCC(c3ccc(C#N)cc3)CC2)ccc1C [Example 113, 2-[[5-[4-(4-cyanophenyl)piperidine-1-carbonyl]-2-methyl-phenyl]carbamoylamino]ethylcarbamoylmethyl acetate] — higher, 92.7%
- Cc1ccc(C(=O)N2CCC(c3ccc(C#N)cc3)CC2)cc1NC(=O)NCC(F)(F)F [Example 168, 1-[5-[4-(4-cyanophenyl)piperidine-1-carbonyl]-2-methyl-phenyl]-3-(2,2,2-trifluoroethyl)urea] — lower, 84.6%
- Cc1ccc(C(=O)N2CCC(c3ccc(C#N)cc3)CC2)cc1NC(=O)NC(C)c1ccccn1 (stereo not shown) [Example 368, 1-[5-[4-(4-cyanophenyl)piperidine-1-carbonyl]-2-methylphenyl]-3-(1-pyridin-2-ylethyl)urea] — higher, 110%
- CCNC(=O)Nc1cc(C(=O)N2CCC(c3ccc(C#N)cc3)CC2)c(C)cc1C [Example 410, 3-[5-[4-(4-cyanophenyl)piperidine-1-carbonyl]-2,4-dimethylphenyl]-1-ethylurea] — higher, 93.7%
- Cc1ccc(C(=O)N2CCC(c3ccc(C#N)cc3)CC2)cc1NC(=O)NCCNS(=O)(=O)C(C)C [Example 122, 1-[5-[4-(4-cyanophenyl)piperidine-1-carbonyl]-2-methyl-phenyl]-3-[2-(propan-2-ylsulfonylamino)ethyl]urea] — higher, 96.1%
- CC(=O)NCCNC(=O)Nc1cc(C(=O)N2CCC(c3ccc(C(F)(F)F)cc3)CC2)ccc1C [Example 326, N-[2-[[2-methyl-5-[4-[4-(trifluoromethyl)phenyl]piperidine-1-carbonyl]phenyl]carbamoylamino]ethyl]acetamide] — higher, 91.8%
- Cc1ccc(C(=O)N2CCC(c3ccc(C#N)cc3)CC2)cc1NC(=O)NCC(=O)NC(C)C [Example 171, 2-[[5-[4-(4-cyanophenyl)piperidine-1-carbonyl]-2-methyl-phenyl]carbamoylamino]-N-propan-2-yl-acetamide] — higher, 96.3%
- CC(=O)N[C@@H]1CCCC[C@@H]1NC(=O)Nc1cc(C(=O)N2CCC(c3ccc(C#N)cc3)CC2)ccc1C (relative stereo) [Example 308, N-[(cis)-2-[[5-[4-(4-cyanophenyl)piperidine-1-carbonyl]-2-methyl-phenyl]carbamoylamino]cyclohexyl]acetamide] — higher, 91.5%
- CC(=O)NCC(C)NC(=O)Nc1cc(C(=O)N2CCC(c3ccc(C#N)cc3)CC2)ccc1C (stereo not shown) [Example 232, N-[2-[[5-[4-(4-cyanophenyl)piperidine-1-carbonyl]-2-methyl-phenyl]carbamoylamino]propyl]acetamide] — higher, 94.2%
- CNC(=O)c1ccc(C2CCN(C(=O)c3ccc(C)c(NC(=O)NC(C)C)c3)CC2)cc1 [Example 329, N-methyl-4-[1-[4-methyl-3-(propan-2-ylcarbamoylamino)benzoyl]-4-piperidyl]benzamide] — lower, 84.3%

Same assay, conditions: FAS enzyme assay, IC50 from fitted sigmoid curves

For COc1ccc(NC(=O)NCc2ccccc2)cc1C(=O)N1CCC(c2ccc(C#N)cc2)CC1 [3-benzyl-1-[3-[4-(4-cyanophenyl)piperidine-1-carbonyl]-4-methoxyphenyl]urea], the “IC50, inhibition of human Fatty Acid Synthase” value was “do not have IC50s in the range of about 0.001 μM to about 30 μM”.
For Cc1ccc(C(=O)N2CCC(c3ccc(C#N)cc3)CC2)cc1NC(=O)N(C)C [3-[5-[4-(4-cyanophenyl)piperidine-1-carbonyl]-2-methylphenyl]-1,1-dimethylurea], the “IC50, inhibition of human Fatty Acid Synthase” value was “do not have IC50s in the range of about 0.001 μM to about 30 μM”.
